Usually EC50 stands for the concentration needed to bring the measured effect to its halfway point.

Molecules are shown by their SMILES.

For 15 compounds, EC50 results are on record in BindingDB's records for doi:10.1039/c5md00579e (The Scripps Research Institute, 2016).

The nature of the assay: Inhibition of MCT1 in human Raji cells assessed as inhibition of cell proliferation after 96 hrs by MTT assay. In general terms: Tetrazolium dyes change colour on reduction, which living cells bring about.

As to `CC(C)Cc1nn(C)c(=O)c2c(SCCCO)n(Cc3ccnc(NCCCCCNC(=O)[C@@H](N)CCC(N)=O)c3)cc12`, the EC50 came out at 500 nM.

In the case of `CC(C)Cc1nn(C)c(=O)c2c(SCCCO)n(Cc3ccc(C#CCCCNC(=O)[C@@H](N)CCC(N)=O)c4ccccc34)cc12`, the EC50 came to 4 nM.

As to `CC(C)Cc1nn(C)c(=O)c2c(SCCCO)n(Cc3cnc(NCCCCCNC(=O)[C@@H](N)CCC(N)=O)c4ccccc34)cc12`, the EC50 is 0.16 nM.

Take `CC(C)Cc1nn(C)c(=O)c2c(SCCCO)n(Cc3cnc(Cl)c4ccccc34)cc12`: the EC50 turned out to be 55 nM.

For `CC(C)Cc1nn(C)c(=O)c2c(SCCCO)n(Cc3ccc(C#CCCCOc4ccc(C[C@H](N)C(=O)O)cc4)c4ccccc34)cc12`, the EC50 was determined as 0.8 nM.

For the compound `CC(C)Cc1nn(C)c(=O)c2c(SCCCO)n(Cc3ccc(Cl)nc3)cc12`, the EC50 was 690 nM.

With `CC(C)Cc1nn(C)c(=O)c2c(SCCCO)n(Cc3ccnc(Cl)c3)cc12`, the EC50 came to 1000 nM.

In the case of `CC(C)Cc1nn(C)c(=O)c2c(SCCCO)n(Cc3ccc(NCCCCCN)nc3)cc12`, the EC50 was found to be 420 nM.

For `CC(C)Cc1nn(C)c(=O)c2c(SCCCO)n(Cc3ccc(Br)c4ccccc34)cc12`, the EC50 came out at 11 nM.

With `CC(C)Cc1nn(C)c(=O)c2c(SCCCO)n(Cc3cc(Cl)nc4ccccc34)cc12`, the EC50 is 60 nM.

Take `CC(C)Cc1nn(C)c(=O)c2c(SCCCO)n(Cc3ccnc(NCCCCCN)c3)cc12`: the EC50 is 520 nM.

For the compound `CC(C)Cc1nn(C)c(=O)c2c(SCCCO)n(Cc3cnc(NCCCCCN)c4ccccc34)cc12`, the EC50 came out at 0.8 nM.

Regarding `CC(C)Cc1nn(C)c(=O)c2c(SCCCO)n(Cc3ccc(NCCCCCNC(=O)[C@@H](N)CCC(N)=O)nc3)cc12`, the EC50 was 100 nM.

Regarding `CC(C)Cc1nn(C)c(=O)c2c(SCCCO)n(Cc3cc(NCCCCCN)nc4ccccc34)cc12`, the EC50 was found to be 24 nM.

In the case of `CC(C)Cc1nn(C)c(=O)c2c(SCCCO)n(Cc3cc(NCCCCCNC(=O)[C@@H](N)CCC(N)=O)nc4ccccc34)cc12`, the EC50 is 0.8 nM.
